The values below come from patent US5908868A, “Retinol derivatives useful for enhancing immune response” (priority 1995, dated 1999).

One data set relates to ERLD. Put plainly: Retinol metabolism. In kind it is in vitro ADME. How it is done: FBS. The FBS was preincubated at room temperature with 14.4 uCi [^3 H
retinol (NEN) for 4 h. The cell pellet was washed twice with PBS. The
retinoid were extracted according to MClean et al. 90 and separated on an
analytical c18 reverse phase column according to FIG. 7. The DPM wer
determined using an online scintillation counter.

A further data set has as its system thymocytes. Put plainly: Proliferation of Con A activated thymocytes in serum-free medium. In kind it is cell-based, BALB/c mouse. Conditions: Con A 0.5 μg/ml, retinol 3×10^-6 M, ITLB. How it is done:
Purified thymocytes (5×10^5 cells/well) were stimulated by TCR crosslinking with immobilized anti-CD3e antibody (FIG. 15A) or 0.4 μg/ml Con A (FIG. 15B) in serum-free ITLB medium. The indicated amounts of retinoids were added either once at the beginning of the experiment (marked as "1x") or every 12 hours thereafter (marked as "6x"). DNA synthesis was measured after 72 hours by tritiated thymidine uptake as described.
Thymuses of 3 to 6-week-old BALB/c mice were teased in serum-free RPMI medium supplemented with 1% BSA, 10^-6 M linoleic acid and antibiotics. […] Cell viability was evaluated by trypan blue dye exclusion. To determine the extent of depletion of accessory cells, samples were stained with FITC-conjugated anti-Fc receptor antibody and analyzed by flow cytometry on a FACScan instrument (Becton Dickinson). No FcR-bearing cells were detected by this procedure.
Cells were cultured in serum-free medium, referred to as ITLB, containing RPMI 1640 supplemented with 8×10^-7 M insulin (5 μg/ml), 7×10^-8 M transferrin (5 μg/ml), 2×10^-6 M linoleic acid, 2×10^-6 M delipidated BSA (0.12 mg/ml), 2 mM L-glutamine, 1 mM sodium pyruvate and antibiotics. […] The optimal concentration for stimulation of T cells was determined for each batch of anti-CD3 mAb and Con A. The optimal range of Con A was particularly narrow in serum-free medium (0.5-0.2 μg/ml) and varied with the cell density used. […]

In the case of `CC1=C(/C=C/C(C)=C/C=C/C(C)=C/CO)C(C)(C)CCC1` [retinol, all-trans retinol], the Total cts. with ERLD is 2.8 × 10^5 cts. For the same compound, in the data set with ERLD (overnight), the “Ester (% of taken up retinol)” value was 20%, the “P3 (% of taken up retinol)” value turned out to be 9% and the “Retinol (% of taken up retinol)” value is reported as 63%. For the same compound, in the data set on thymocytes, the thymocyte proliferation entry was “growing exponentially”.
